Data as given in patent publication US9504738B2, “Immunogenic epitopes, peptidomimetics, and anti-peptide antibodies, and methods of their use” (Ohio State Innovation Foundation, priority 2010, dated 2016).
Ends that are not written are not given here.

Key:
[1] = Active immunization of rabbits, antibody titers by ELISA; type: in vivo, rabbit; settings: outbred rabbits, MVF chimeric peptide
Protocol: Active immunization and Ab purification. Mice and rabbits were immunized subcutaneously at multiple sites with a total of 1 mg (rabbits) or 100 μg (mice) of peptide dissolved in ddH2O emulsified (1:1) in Montanide ISA720 vehicle (Seppic) with 100 μg of N-acetylglucosamine-3-yl-acetyl-1-alanyl-d-isoglutamine (nor-MDP). Balb/c mice. Rabbits and mice were boosted with the respective doses at 3 week intervals. Rabbit blood was collected via the central auricular artery and sera tested for antibody titers. Anti-peptide antibodies were purified by affinity chromatography using a Protein A/G column (Pierce) from high titer antibody sera.
ELISA. Antibody titers were determined as previously described and it is defined as the reciprocal of the highest serum dilution with an absorbance of 0.2 or greater after subtracting the background.
Antigenicity and Immunogenicity of Peptides. Earlier studies in our lab have shown that the MVF-HER-2-266 was highly immunogenic in both rabbits and mice. […] We had to do up to six immunizations with the D-amino acid peptide before we could obtain higher abs titers while with the L-amino acids only four immunization are enough to produce higher titers. We therefore used the abs raised against these peptides to test their effects on cancer cells in vitro.

HER-2 = biological target: T1, HER-2 (Homo sapiens, UniProt P04626); assay: HER-2 phosphorylation assay in BT-474 cells, peptides (Duoset IC human phospho-ErbB2); type: cell-based; settings: peptides then HRG 10 min
T1 construct: The human breast tumor cell lines BT-474 were purchased from American Type Culture Collection; host or cells: BT-474
Protocol: Phosphorylation assay. 1×10^6 BT-474 cells were plated in each well of a six well plate and incubated overnight at 37° C. Culture medium was removed and the cell layer washed once with PBS low score (1% FCS). Culture medium was added to the wells and plates incubated overnight. Cells were washed and 50 ug of peptides, anti-peptide Abs and controls in binding buffer (0.2% w/v BSA, RPMI 1640 medium with 10 mM HEPES (pH 7.2) was added to the wells and incubated at room temperature for 1 h. HRG (5 nM/well) was added and the incubation continued for 10 min. Binding buffer was removed and the cell layer washed once with PBS before adding 1 ml of RIPA lysis buffer (Santa Cruz Biotechnology, Santa Cruz, Calif.). Plates were rocked at 4° C. for 2 h. Lysates were removed, spun at 13000×g and supernatants collected. Protein concentration of each sample was measured by Coomassie plus protein assay reagent kit and lysates were stored at −80° C. Phosphorylation was determined by Duoset IC for human phosphor-ErbB2 according to the manufacturer's directions (RSD Systems).
Peptide inhibition of Phosphorylation. The main mode of action of Pertuzumab is to inhibit phosphorylation. This is due to the fact that it sterically blocks the dimerization domain of HER-2 thereby preventing the formation of dimers with other HER receptors and thus interrupting downstream signaling. […]

HUVEC = assay: Scratch wound assay (HUVEC migration); type: cell-based, human; settings: stimulated with 50 ng/ml rhVEGF, 16 h
Protocol: Scratch Wound Assay. HUVEC were cultured on 0.1% gelatin coated 24-well plates. Confluent cells were incubated overnight with starving media, then they were scraped using sterilized 200-μl pipette tips and stimulated with 50 ng/ml of rhVEGF with or without VEGF mimic peptides for 16 h at 37° C. Cells were fixed and images were captured immediately at 40× magnification from light microscopy and cells that migrated to the scraped area were counted using imageJ software.
VEGF mimic peptides inhibit cell migration in a Scratch Wound Assay. New blood vessel formation requires that the endothelial cells migrate towards the sources of growth factor. […] We used the scratch wound assay with HUVEC to observe the ability of the VEGF mimic peptides in inhibiting endothelial cell migration. […] Growth conditions (medium supplemented with 20% FBS and endothelial cell growth supplements).

[2] = system: TS/A cells (HER-2 negative); assay: Proliferation assay (MTT) of TS/A cells in presence of HRG; type: cell-based, mouse; settings: HER-2 negative cell line
Protocol: Proliferation assay. BT-474, SK-BR-3, MDA-468 and TS/A cells (1×10^4 were plated in 96-well flat-bottom plates overnight. Growth medium was replaced with low sera (1% FCS) medium and the cells were incubated overnight. Media were removed from the wells and replaced with low sera medium containing HER-2 and VEGF mimic peptides at concentrations ranging from 25-150 ug/ml and plates were incubated an additional 1 h at 37° C. before adding 10 ng/ml HRG in 1% medium. Plates were incubated for an additional 72 h at 37° C. before adding MTT (5 mg/ml) to each well. Plates were incubated 2 h at 37° C., and 1000 of extraction buffer (20% SDS, 50% dimethylformamide (pH 4.7)) was added to each well. Plates incubated overnight at 37° C. and read on an ELISA reader at 570 nm with 655 nm background subtraction Inhibition percentage was calculated as 100%×(Untreated cells-Peptide treated cells)/(Untreated cells).
Antiproliferative effects of peptides. The antiproliferative effects of the peptides were tested using four different cell lines (Bt-474 and SK-BR-3: HER-2^high, MDA-468: HER-2^low and TS/A: HER-2^negative) (FIGS. 13A-13D) in the presence of HRG to activate the HER-3 receptor. […] The cells were incubated with the peptides before being exposed to HRG.

[3] = biological target: T2, extracellular domain of VEGFR-2 (KDR-Fc) (Homo sapiens, UniProt P35968); assay: Surface plasmon resonance (BIAcore 3000): KDR-Fc injected over immobilized VEGF mimic peptides; settings: peptide immobilized on CM5 chip, 1:1 (Langmuir) model, read-out: equilibrium binding constant (KD), binding affinity
T2 construct: the extracellular domain of VEGFR-2(KDR-Fc) was injected as ligand; Fc; purchased R&D System
T2 sequence (P35968 20-764 limits assumed): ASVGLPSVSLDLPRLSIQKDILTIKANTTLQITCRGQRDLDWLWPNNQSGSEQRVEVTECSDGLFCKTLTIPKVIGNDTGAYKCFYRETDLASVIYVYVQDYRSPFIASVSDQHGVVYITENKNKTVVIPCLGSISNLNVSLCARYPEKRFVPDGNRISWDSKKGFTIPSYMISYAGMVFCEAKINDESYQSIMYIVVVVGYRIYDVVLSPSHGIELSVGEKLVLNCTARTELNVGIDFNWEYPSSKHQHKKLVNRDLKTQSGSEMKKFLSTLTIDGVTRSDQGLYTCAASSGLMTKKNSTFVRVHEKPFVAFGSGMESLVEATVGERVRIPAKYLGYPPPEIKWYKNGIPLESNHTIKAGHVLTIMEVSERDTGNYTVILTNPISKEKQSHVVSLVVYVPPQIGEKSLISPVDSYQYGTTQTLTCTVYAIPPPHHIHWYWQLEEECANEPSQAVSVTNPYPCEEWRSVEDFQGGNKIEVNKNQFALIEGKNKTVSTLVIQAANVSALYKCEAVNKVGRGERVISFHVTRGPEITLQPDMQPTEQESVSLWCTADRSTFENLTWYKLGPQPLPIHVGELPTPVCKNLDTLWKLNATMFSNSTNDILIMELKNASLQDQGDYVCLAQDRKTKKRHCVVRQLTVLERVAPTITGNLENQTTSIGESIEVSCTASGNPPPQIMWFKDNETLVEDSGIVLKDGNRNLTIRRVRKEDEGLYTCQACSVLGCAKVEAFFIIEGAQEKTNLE
Protocol: Surface Plasma Resonance. Binding assays were performed using a Biacore 3000 instrument (Pharmacia Bio-sensor, Uppsala, Sweden). The experiments were performed at room temperature using HBS-EP buffer (25 mM HEPES, pH 7.4, […], 3.4 mM EDTA, and 0.005% surfactant P20). Peptides were coupled onto CM5 chip surfaces at 10 μL/min using a standard amine coupling protocol with EDC (N-ethyl-N′-[dimethylaminopropyl]carbodiimide)/NHS (N-hydroxysuccinimide). KDR-Fc (R&D System) at several concentrations in HBS-EP buffer. Was injected at a flow rate of 10 μL/min. Data analysis was performed with BIAsimulation software version 3.1 (Pharmacia Biosensor). […] To obtain measurement of anti-peptides binding affinities similar a experiment was carried out, but rhVEGF was immobilized onto CM5 chip surface and anti-peptides were injected at several concentrations.
Conformational VEGF mimic peptide binds to VEGFR-2. Binding assay was carried out using BIAcore 3000 instrument. Designed VEGF mimic peptide VEGF-P3 (NC) and (CYC) were immobilized onto chip CM5 and the extracellular domain of VEGFR-2(KDR-Fc) was injected as ligand. […] Global analysis was performed with data points fitting to a simple 1:1 (Langmuir) binding model. The equilibrium binding constant (KD) takes Ka and Kd values in consideration and represents the binding affinity. […]

VEGFR-2 = biological target: T3, VEGFR-2 (Homo sapiens, UniProt P35968); assay: VEGFR-2 phosphorylation in 293/KDR cells, quantified with Human Phospho-VEGF R2/KDR DuoSet IC kit; type: cell-based; settings: 293/KDR cells stimulated with rhVEGF; control (only rhVEGF) taken as 100%
T3 construct: host or cells: 293/KDR cells
T3 sequence (P35968 20-1356): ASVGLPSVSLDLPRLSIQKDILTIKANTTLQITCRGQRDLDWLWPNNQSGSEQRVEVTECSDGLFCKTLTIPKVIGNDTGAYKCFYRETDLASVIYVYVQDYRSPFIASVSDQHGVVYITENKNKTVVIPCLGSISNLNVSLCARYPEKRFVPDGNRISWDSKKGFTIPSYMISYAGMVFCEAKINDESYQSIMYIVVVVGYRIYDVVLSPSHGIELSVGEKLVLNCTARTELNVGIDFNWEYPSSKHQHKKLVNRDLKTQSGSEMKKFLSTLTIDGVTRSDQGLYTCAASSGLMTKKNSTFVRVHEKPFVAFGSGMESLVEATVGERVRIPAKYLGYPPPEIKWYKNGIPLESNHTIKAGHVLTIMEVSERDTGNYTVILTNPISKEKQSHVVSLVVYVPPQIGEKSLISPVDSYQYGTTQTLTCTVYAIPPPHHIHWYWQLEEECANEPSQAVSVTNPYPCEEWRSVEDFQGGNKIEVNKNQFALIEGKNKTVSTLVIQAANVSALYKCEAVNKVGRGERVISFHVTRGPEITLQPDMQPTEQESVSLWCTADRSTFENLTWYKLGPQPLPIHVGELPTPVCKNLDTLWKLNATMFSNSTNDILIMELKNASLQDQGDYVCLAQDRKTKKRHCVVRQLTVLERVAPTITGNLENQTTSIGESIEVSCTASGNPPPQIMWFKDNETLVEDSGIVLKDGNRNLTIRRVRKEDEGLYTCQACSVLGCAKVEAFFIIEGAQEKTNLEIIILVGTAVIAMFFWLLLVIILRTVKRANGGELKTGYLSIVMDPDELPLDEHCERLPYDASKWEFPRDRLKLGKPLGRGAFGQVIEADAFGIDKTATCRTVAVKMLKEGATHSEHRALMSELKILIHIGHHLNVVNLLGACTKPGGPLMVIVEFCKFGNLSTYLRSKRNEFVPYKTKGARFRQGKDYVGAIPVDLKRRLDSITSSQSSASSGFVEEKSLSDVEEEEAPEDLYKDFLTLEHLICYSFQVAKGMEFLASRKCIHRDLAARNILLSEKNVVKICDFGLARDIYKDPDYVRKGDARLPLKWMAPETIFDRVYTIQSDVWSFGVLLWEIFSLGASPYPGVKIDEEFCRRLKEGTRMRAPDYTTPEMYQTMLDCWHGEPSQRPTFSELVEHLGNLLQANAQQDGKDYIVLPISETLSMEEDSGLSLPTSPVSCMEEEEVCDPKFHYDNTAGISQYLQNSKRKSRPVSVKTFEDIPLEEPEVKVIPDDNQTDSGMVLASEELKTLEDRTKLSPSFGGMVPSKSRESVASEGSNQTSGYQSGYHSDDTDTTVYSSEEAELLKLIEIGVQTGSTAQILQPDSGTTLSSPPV
Protocol: 293/KDR cells (5×10^5 cells/well) were seeded on 6-well plates in DMEM medium supplemented with 10% FBS. After overnight incubation in starving medium (no FBS) cells were stimulated with rhVEGF for 5 min. Cells were washed in cold PBS supplemented with 1 mM sodium orthovanadate and harvested into RIPA lysis buffer (Santa Cruz Biotechnology, Santa Cruz, Calif.) and incubated on ice for 30 min and cell lysate was collected after centrifugation at 13000 rpm for 10 min. Cell lysate was kept at −80° C. until used for Western blotting detecting phosphoro-KDR and total KDR as described above.
Conformational VEGF mimic peptide prevents VEGFR-2 phosphorylation. VEGFR-2 (also known as […] or KDR) has been characterized as a tyrosine receptor type III. VEGFR-2 activation is promoted by dimerization upon VEGF binding. VEGFR-2 contains several tyrosine residues that can be phosphorylated, triggering several pathways such as proliferation, migration and survival in the endothelial cells. […] All three VEGF mimic peptides were able to decrease the level of receptor phosphorylation (FIG. 5); however, the inhibitory effect was unable to be quantified, due to the limited detection of VEGFR-2 in the Western blotting. […] The percentage of inhibition was calculated assuming the phosphorylation level of control (only rhVEGF) was 100% and the results are represented in FIG. 6B.

In the case of “NH2-D[FSMECIMIKPHQGQHIGCQMTI]-COOH [VEGF-P4-CYC]”, the “immunogenicity (antibody titers)” value [1] is reported as “immunogenic” and the “inhibition rate of HER-2 phosphorylation” value (HER-2) is reported as 39%.
For `CC(C)c1cc(/C=C(\C#N)C(=O)NCCCc2ccccc2)cc(C(C)C)c1O` [SU1498], the “inhibition of HUVEC migration” value (HUVEC) was “approximately 50%”.
For “LHCPALVTYNTDTFESMPNPEGRYTFGASCV [HER-2-266-296]”, the “inhibition rate of HER-2 phosphorylation” value (HER-2) was 38% and the “antiproliferative effect on TS/A cells” value [2] was “inhibitory effects”.
With ITMQIMRIKPHQGQHIGEMSF [VEGF 102-122] the Kd [3] was 45 nM and the “inhibition of VEGFR-2 phosphorylation” value (VEGFR-2) was 4%.
